Results as given in patent US20240009104A1, “PROCESS FOR EXTRACTION AND HEMI-SYNTHESIS OF PYRANOANTHOCYANINS AND SKINCARE COSMETIC FORMULATIONS CONTAINING THEM” (UNIVERSIDADE DO PORTO, priority 2021, published 2024).

Key:
[1] = Determination of solar protection factor (SPF), spectrophotometric, Mansur equation; format: physicochemical; settings: for SPF: 1.0 mg in 5 mL ethanol, absorbance 290-320 nm, Mansur equation
Method: Sample preparation 1.0 mg of all samples was weighed, transferred to a 5 mL volumetric flask, diluted to volume with ethanol, followed by ultra-sonication for 5 min. The absorption spectra of samples in solution were obtained in the range of 290 to 450 nm using 1 cm quartz cell, and ethanol as a blank. The absorption data were obtained in the range of 290 to 320, every 5 nm, and 3 determinations were made at each point, followed by the application of Mansur equation.
Where CF (correction factor) is 10, EE (A) is erythmogenic effect of radiation with wavelength λ, Abs is Spectrophotometric absorbance values at wavelength λ. The obtained absorbance values are multiplied with EE (λ)×1 (λ) and then their summation is taken and multiplied with correction factor to obtain the SPF values.

P. aeruginosa ATCC 27853 = experiment: MIC/MBC broth microdilution, P. aeruginosa; format: cell-based; settings: Pseudomonas aeruginosa, ATCC27853; P. aeruginosa ATCC 27853, 24 h, 0.5 to 512 μg/mL
Method: (§1) Compounds/extracts were tested against the following bacterial strains: Pseudomonas aeruginosa ATCC 27853, Staphylococcus aureus ATCC 29213, Staphylococcus epidermidis ATCC 14990, Streptococcus pyogenes ATCC 19615, Micrococcus luteus ATCC 4698. Prior to each in vitro bioassay, fresh cultures were obtained for each strain using the appropriate medium and incubation conditions as follows. Staphylococcus spp. and P. aeruginosa were grown on Mueller-Hinton (MH) agar (Liofilchemsrl, Italy) for 24 h at 37° C., while M. luteus was grown in Tryptic Soy agar (TSA, Liofilchem srl, Italy) for 24 h at 30° C. and S. pyogenes on TSA with 5% defibrinated sheep blood (Thermo Fisher Scientific, USA) for 24 h at 37° C. in an atmosphere of 5% CO2.
(§2) Minimum inhibitory concentrations (MICs) of compounds/extracts were determined using a broth microdilution technique, following the recommendations of the Clinical and Laboratory Standards Institute. Briefly, fresh colonies of each strain were used to prepare the respective inocula with an optical density at 600 nm (OD600) equal to 0.1 (approximately 1^10^8 CFU/mL). For all strains, cation-adjusted Mueller-Hinton broth (MHB2, Sigma-Aldrich, USA) was used, but in the case of S. pyogenes, MBH2 was previously supplemented with 2.5% lysed horse blood (Thermo Fisher Scientific, USA). In 96-well, U-bottom, microplates, each compound was serially diluted in the respective medium from stock solutions (10 mg/mL in DMSO) to achieve in-test concentrations ranging from 0.5 to 512 μg/mL. Wells were inoculated so that the final concentration in eachwas of 5×10^5 CFU/mL. The microplates were incubated at 37° C. for 24 h. The MIC was defined as the lowest concentration of compound inhibiting the bacterial growth visible to the naked eye.

S. aureus ATCC 29213 = experiment: MIC/MBC broth microdilution, S. aureus; format: cell-based; settings: Staphylococcus aureus, ATCC29213; S. aureus ATCC 29213, 24 h, 0.5 to 512 μg/mL
Method: as §1, §2

M. luteus ATCC 4698 = experiment: MIC/MBC broth microdilution, M. luteus; format: cell-based; settings: Micrococcus luteus, ATCC4698; M. luteus ATCC 4698, 24 h, 0.5 to 512 μg/mL
Method: as §1, §2

[2] = test system: S. epidermidis ATCC 14990; experiment: MIC/MBC broth microdilution, S. epidermidis; format: cell-based; settings: Staphylococcus epidermidis, ATCC14990; S. epidermidis ATCC 14990, 24 h, 0.5 to 512 μg/mL
Method: as §1, §2

S. pyogenes ATCC 19615 = experiment: MIC/MBC broth microdilution, S. pyogenes; format: cell-based; settings: Streptococcus pyogenes, ATCC19615; S. pyogenes ATCC 19615, 24 h, 0.5 to 512 μg/mL
Method: as §1, §2

[3] = Cytotoxicity to human fibroblasts and keratinocytes, MTT assay; format: cell-based; settings: HaCat, HFF-1 and Heka cells, 0.78-100 μM
Method: For this purpose, immortalized human foreskin fibroblasts HFF-1 were grown as monolayers from passage number 9-18 and maintained at 37° C. in an atmosphere of 5% CO2. For routine maintenance, the cells were cultured in 22.1 cm^2 plates as monolayers and maintained in Dulbecco's Modified Eagle Medium (DMEM, from Cell Lines Service), supplemented with 10% fetal bovine serum (FBS, from CLS) and 1% of antibiotic/antimycotic solution (100 units/mL of penicillin, 10 mg/mL of streptomycin and 0.25 mg/mL of amphotericin B from Sigma-Aldrich, St. Louis, MO, United States). The medium was replaced every two days and the cells were harvested every two weeks.
The cytotoxicity of the anthocyanins derivatives to HFF-1, Heka, and HaCat cells was evaluated using the standard MTT assay. Briefly, cells were seeded at a density of 5×10^4 cells or 1.5×10^4 cells/well onto 96-well plates and incubated at 37° C. in a 5% CO2 atmosphere. Cells were allowed to grow for 24 h, and serially diluted solutions of the different compounds (0.78-100 μM) were added to the wells. Then, cells were incubated for 48 h at 37° C., after which wells were washed once with phosphate buffered saline solution (PBS, Sigma-Aldrich, St. Louis, MO, United States), followed by addition of 0.45 mg/mL of MTT solution to each well. Crystals were allowed to form for 2 h. […] Absorbance was read at 570 nm.

Row | Molecule | SPF [1] | MIC (P. aeruginosa ATCC 27853) [µg/mL] | MIC (S. aureus ATCC 29213) [µg/mL] | MIC (M. luteus ATCC 4698) [µg/mL] | MIC [2] [µg/mL] | MIC (S. pyogenes ATCC 19615) [µg/mL] | UV protection (0.2 mg/mL) ([1]; 0.2 mg/mL) | IC50 at 48 h [3] [µM]
1 | CN(C)c1ccc(C2=Cc3c(OC4OC(CO)C(O)C(O)C4O)c(-c4ccc(O)c(O)c4)[o+]c4cc(O)cc(c34)O2)cc1 (centres unmarked) [V-C, Pyranocyanidin-3-glucoside-(4-dimethylamino)-cinnamyl] | 13 ± 0.04 | – | – | – | – | – | – | –
2 | COc1cc(-c2[o+]c3cc(O)cc4c3c(c2OC2OC(CO)C(O)C(O)C2O)C=C(/C=C/c2c(O)cc(O)c3c2OC(c2ccc(O)c(O)c2)C(O)C3)O4)cc(OC)c1O (centres unmarked) [VI-B, Vinylpyranomalvidin-3-O-glucoside-cathechin] | 8.35 ± 0.06 | – | – | – | – | – | – | –
3 | CN(C)c1ccc(/C=C/C=C/C2=Cc3c(OC4OC(CO)C(O)C(O)C4O)c(-c4ccc(O)c(O)c4)[o+]c4cc(O)cc(c34)O2)cc1 (centres unmarked) [VIII-A, 4-(Dimethylamino)-cinnamyl-10-butadienylidene-pyranocyanidin-3-O-glucoside] | 14.78 ± 0.02 | – | – | – | – | – | – | –
4 | CC1=Cc2c(OC3OC(CO)C(O)C(O)C3O)c(-c3ccc(O)c(O)c3)[o+]c3cc(O)cc(c23)O1 (centres unmarked) [III-A, Methylpyranocyanidin-3-glucoside] | 18.53 ± 0.15 | > 512 | > 512 | > 512 | > 512 | > 512 | – | –
5 | Malvidin-3-O-glucoside-4-vinylcatechol [V-B] | 10.02 ± 0.00 | – | – | – | – | – | – | –
6 | O=C(O)C1=Cc2c(OC3OC(CO)C(O)C(O)C3O)c(-c3ccc(O)c(O)c3)[o+]c3cc(O)cc(c23)O1 (centres unmarked) [II-A, Carboxypyranocyanidin-3-glucoside] | 20.71 ± 0.18 | > 512 | > 512 | > 512 | > 512 | > 512 | – | –
7 | 4-(Dimethylamino)-cinnamyl-10-vinylene-pyranomalvidin-3-glucoside [VII-B] | 15.02 ± 0.07 | – | – | – | – | – | – | –
8 | COc1cc(-c2[o+]c3cc(O)cc4c3c(c2OC2OC(CO)C(O)C(O)C2O)C=C(C(=O)O)O4)cc(OC)c1O (centres unmarked) [II-B, Carboxypyranomalvidin-3-glucoside] | 13.92 ± 0.04 | > 512 | > 512 | > 512 | > 512 | > 512 | 13.92 ± 0.04 | > 100
9 | Cyanidin-3-O-glucoside-4-vinylcatechol [V-A] | 24.00 ± 0.01 | – | – | – | – | – | – | –
